# Laboratory results as given in patent publication US20110251158A1, “FULLERENE THERAPIES FOR INFLAMMATION AND INHIBITION OF BUILD-UP OF ARTERIAL PLAQUE” (Luna Innovations Incorporated, priority 2008, published 2011).
# Legend:
# [1] = tested on: inflammatory arthritis; assay: Murine arthritis model (arthritogenic serum): clinical indices and ankle swelling; assay type: in vivo, mice (C57/B6)
# Protocol: To induce disease, C57/B6 (5 mice/cage/group) mice were injected intraperitoneally (IP) on Days 1 and 3 with 100 μl of arthritogenic serum. […] As a control 100 μl of PBS without serum was injected in the control group. Swelling in each ankle was measured along with the clinical indices as described (Lee, D M, Science 2002, Sep. 6; 297(5587):1689-92). Measurements were performed every second day by personnel blinded to the identity of the injections. After 14 days mice were sacrificed and ankle sections removed for histology and serum obtained for cytokine analysis. Error bars, SEM. In FIG. 5A, clinical index was given as the sum of observed inflammation (per paw): 0=no evidence of inflammation; 1=subtle inflammation (metatarsal phalanges joints, individual phalanx, or localized edema); 2=easily identified swelling but localized to either dorsal or ventral surface of paw; and 3=swelling on all aspects of paw. Maximum score=12. In FIG. 5B, the sum of the measurement in ankle swelling at each day was given. The * indicates significant differences observed on that day in fullerene compared to non-fullerene-treated mice. Prior to injection, 5 was incorporated into liposomes with egg phosphatidylcholine (PC) at a ratio of 1:2. 7 was dissolved in PBS buffer at pH 7.4. […]
# [2] = tested on: Peripheral blood basophils (PBB); assay: Anti-IgE-induced histamine release (degranulation) from PBB; assay type: cell-based, human
# Protocol: (§1) PBB were obtained from two sources: donors recruited under an IRB-approved protocol after informed consent or from leukopheresis packs obtained from the Johns Hopkins Hemapheresis Center. PBB were purified to ≧99% purity as described in Vonakis, B. M., Gibbons S Jr, Sora, R., Langdon, J. M., and MacDonald, S. M. J. Allergy Clin. Immunol. 108, 822-831 (2001), and Miura, K., Saini, S. S., Gauvreau, G., and MacGlashan, D. W., Jr. J. Immunol. 167, 2282-2291 (2001). Purified PBB were incubated overnight (20 hours) with a fullerene derivative (5 μg/ml) or vehicle control and a minimal (non-stimulatory) concentration of IL-3 (2 pg/ml) to prevent apoptosis. The next day, cells were washed and aliquoted for the histamine release assay by treatment with 0.1 mg/ml of goat polyclonal anti-IgE, buffer alone (spontaneous release) or perchloric acid (total histamine determination). Histamine was quantified in cell free supernatants using automated fluorimetry in duplicate. In a second set of experiments the two fullerene derivatives (at 5 μg/ml) were incubated with PBB for 20 hours, washed cells stimulated with 15 ng/ml anti-IgE for 18 hours in duplicate and supernatants collected for quantification of IL-13 by in-house ELISA. The optimal doses of anti-IgE are chosen for activation of PBB.
# [3] = tested on: Peripheral blood basophils (PBB); assay: Anti-IgE-induced IL-13 secretion from PBB (ELISA); assay type: cell-based, human; conditions: for Mean % Inhibition of IL-13 Secretion: 15 ng/ml anti-IgE
# Protocol: as §1
# [4] = tested on: FcεRI activated genes; assay: Gene microarray of FcεRI-activated MC; assay type: cell-based, human
# Protocol: (§2) Mast cells (1×10^7 cell/condition; each condition performed in triplicate) were incubated with or without fullerene derivatives as above and incubated with or without anti-FcεRI antibodies for 10 minutes, supernatants were removed (to remove pre-formed mediators), and fresh warm medium containing anti-FcεRI antibodies (14 ml) added for 2 hours. Cells were centrifuged, the supernatant and the pellet immediately frozen and microarray performed using the Human Whole Genome OneArray™ gene expression profiling service (Phalanx Biotech Group). Separate samples, assayed in parallel were lysed and protein expression analyzed by Western blotting or flow cytometry (CD45) as described in Kepley, C. L., Pfeiffer, J., Wilson, B. W., Schwartz, L. B., and Oliver, J. M. J. Leukocyte Biol. 64, 474-483 (1998).
# For microarray RNA was isolated using the Ambion MessageAmp aRNA kit; all samples passed the internal quality control checks. For hybridization each sample was run in triplicate. Optical density was measured by NanoDrop ND-1000. The ratio of absorbance at 260 nm and 280 nm provides an estimate of RNA purity. […] The reactive amino group of 5-(3-aminoallyl)-UTP/5-(3-aminoallyl)-dUTP was used to conjugate the purified aRNA/cDNA with the NHS-CyDye. Labeling efficiency was calculated by the concentration of CyDye and aRNA/cDNA which was above 10. For hybridization 10 μg Cy5-labeled aRNA was utilized by the Phalanx Hybridization Protocol Array Version HOA 4.3.
# Pearson correlation tables (R values) for each technical repeat were calculated from raw log 2 intensity (R) and normalized log 2 intensity (N) values and compared to each other. Only probes with P value (detected) less than 0.05 were included in the calculation. […] Greater than 95% of the samples had R values of 0.8 or greater indicating strong correlation between the two parameters.
# In order to examine the genes most affected by fullerene derivative preincubation the resulting values were sorted and filtered the following way. First, the mean (±SD) of the six values from each condition for each of the 30,970 genes was calculated. […]
# [5] = tested on: Fyn; assay: Fyn protein level in MC; assay type: cell-based, human; conditions: pre-incubated with TGA
# Protocol: as §2
# Downregulation observed at the gene level was verified at the protein level for several representative molecules using Western blotting or flow cytometry.
# [6] = tested on: MC-induced anaphylaxis; assay: MC-dependent anaphylaxis model: core body temperature; assay type: in vivo, mice (C57BL/6J); conditions: 100 ng i.p. before DNP-BSA challenge
# [7] = tested on: mice; assay: In vivo administration of TGA for three weeks: behavior, gross pathology; conditions: i.v. daily; 200 ng/three weeks
# Excerpt: Taken together, the derivatives described herein are not cytotoxic to several cell lines tested and appear to have no acute in vivo cytotoxic effects.
# [8] = PBB, maximum inhibition set to 100%
substance,measurement,setting,value
C70-tetraglycolic acid [TGA],Inflammation,"[1]; 200 ng/100 μl IP, days 6 to 12, p<0.03",significantly inhibited
same,Inflammation,"[1]; 2000 ng/100 μl IP, days 10 to 14, p<0.02",significantly inhibited
same,Mean % Inhibition of Histamine Release,"[2]; 5 μg/ml FD vs vehicle control, listed as C70-TGA",15.8%
same,"FD + anti-IgE (mean ± SEM), histamine release","[2]; 5 μg/ml FD, 20 hours, anti-IgE",39.4 ± 2.3
same,maximal inhibition of anti-IgE-induced histamine release,"[2]; 50 µg/mL dose, mean±SEM, n=2-3",37.8±16.25%
same,IC50 (degranulation),[2]; [8],9.9 µg/mL
same,"FD + anti-IgE (mean ± SEM, ng/ml), IL-13","[3]; 5 μg/ml FD, 20 hours, 15 ng/ml anti-IgE 18 hours",79.3 ± 20.9 ng/mL
same,Mean % Inhibition of IL-13 Secretion,"[3]; 5 μg/ml FD, listed as C70-TGA",52.4%
same,Mean % Inhibition of IL-13 Secretion,"[3]; 5 μg/ml FD, listed as C70-tetraglucolate",significant inhibition
same,IC50 (IL-13-cytokine production),[3]; [8],10.6 µg/mL
same,maximal inhibition of anti-IgE stimulated IL-13 secretion,"[3]; detected at 0.5 μg/ml, mean, n=2",37.4%
same,genes whose FcεRI-induced activation was reduced,[4],over 1000
same,genes decreased at least 20% compared to non treated cells,[4]; 2 hours FcεRI activation,"2,603"
same,genes with greater than 50% inhibition,[4]; 2 hours FcεRI activation,515
same,Fyn protein levels,[5],no change
same,anaphylactic-induced drop in core body temperature,[6],significant reduction
same,behavior,[7],no notable differences in behavior
same,gross pathological examination,[7],no abnormalities
